Source: patent publication US10815237B2, “Antimicrobials and methods of making and using same” (BIOVERSYS AG, priority 2016, dated 2020)

Tests used:
[1] = tested on: Eschericia coli (E. coli) strain ATCC25922; assay: standard microdilution MIC, E. coli; type: cell-based, Escherichia coli; conditions: for MIC: Escherichia coli
Experimental: (§1) The in vitro activity of the compounds of the present disclosure can be determined. Antimicrobial testing is typically performed to determine the minimum inhibitory concentration (MIC). Minimum inhibitory concentrations (MICs) are determined by the microdilution method in a final volume of 100 μl according to protocols outlined by The Clinical and Laboratory Standards Institute (CLSI). Performance standards for reference strains are assessed within the same experimental design to maintain quality control. See, for example, Clinical Laboratory Standards Institute: Methods for dilution antimicrobial susceptibility tests for bacteria that grow aerobically M7-A8. Approved Standard-Eighth Edition. Wayne, Pa.: CLSI; December 2008; and Clinical Laboratory Standards Institute: Performance Standards for Antimicrobial Susceptibility Testing M100-S20; Approved Standard-Twentieth Edition. Wayne, Pa.: CLSI; June 2010.
(§2) The compounds of the present disclosure were tested for antimicrobial activity. The Compounds 1-23 were run against Eschericia coli (E. coli) strain ATCC25922 and against Staphylococcus aureus (S. aureus) 11540 strain using a standard microdilution assay to determine minimum inhibitory concentrations (MICs). […] It will be recognized by one skilled in the art that the compounds can be assessed against other bacterial organisms and that the presentation of data for activity against Eschericia coli and Staphylococcus aureus are illustrative and in no way is intended to limit the scope of the present disclosure. The compounds of the present disclosure can be assayed against a range of other microorganisms depending upon the performance activity desired to be gathered. Furthermore, the “+” and “−” representation and the selection of a cutoff value of 16 micrograms/mL is also illustrative and in no way is intended to limit the scope of the present disclosure.

[2] = tested on: Staphylococcus aureus (S. aureus) 11540 strain; assay: standard microdilution MIC, S. aureus; type: cell-based; conditions: for MIC: Staphylococcus aureus
Experimental: as §1, §2

[3] = tested on: Chinese hamster ovary (CHO) cells; assay: cytotoxicity against CHO cell line (Cell Titer Blue); type: cell-based; conditions: CHO-K1 cells, 24 hours incubation, percent cell kill
Experimental: The compounds of the present disclosure were tested for cytotoxicity against Chinese hamster ovary (CHO) cells.
The assay was performed by seeding CHO—K1 in F12K medium containing 13.33% Fetal Bovine Serum […]. 37.5 μl of cell suspension at a concentration of 9,500 cells/well was plated into each column of a 384-well black clear bottom assay plate with the exception of a negative (no cell) control column, and allowed to adhere for 2 hours. The culture media was then removed from the 175 cm^2 flask(s) and the cell monolayer washed with 10 mL of Phosphate Buffered Saline PBS. 3 mL of Cellstripper™ was then added and the flask was incubated for approximately 5 min at 37° C. The cells were dissociated by agitation and 7 mL of F 12K medium containing 10% FBS was added to the flask. A homogeneous cell suspension was obtained by trituration of the flask. The cells were counted with a hemocytometer by diluting an aliquot of the cell suspension in PBS with 0.4% trypan blue. Typically, a ratio of 100 μl cell suspension to 1800 μl PBS to 100 μl trypan blue was used.
The volume of cell suspension containing the number of cells needed to seed the plate(s) (15.2 mL containing 3.8×10^6 cells) was calculated and transferred to a 50 mL centrifuge tube with the appropriate volume of media. 37.5 μl of cells were added to each well of the 384 well plate except for the negative (no cell) control column. A cytotoxicity 100-fold dilution plate was then prepared by manually pipetting 18 μl of 100% DMSO into two columns of an empty low volume dilution plate. 2 μl of a 50 mM solution of compounds 1-23 from the translation plate were manually pipetted into the corresponding columns of the 100-fold dilution plate. 10 μl of 100% DMSO was manually pipetted into all remaining columns of the 100-fold plate.
A 4-fold cytotoxicity plate was prepared beforehand by manually pipetting 48 μl of F12K media (without DMSO and without FBS) into each well of a matrix 384 well plate. The test samples in the 100-fold dilution plate were mixed and diluted. Ten 2-fold dilutions were performed for each compound in duplicate. The 384 cannula array then transferred 2 μl to the 48 μl of media in the cytotoxicity 4-fold dilution plate. The array was then mixed and 12.5 μl of samples from the cytotoxicity 4-fold dilution plate were transferred to the 37.5 μl of cells and media. The final top concentration of samples at this point in the procedure was 50 μM with 10 subsequent 1:2 dilutions down to […]. The final DMSO concentration were 1% and the final concentration of FBS was 10%.
Cycloheximide was run as a control. Specifically, Cycloheximide was diluted to 0.1 mM from 100 mM stock […] and was added to the cytotoxicity 100-fold plate. Upon addition to the cell plate, a range of 1 μM to 1 nM of cycloheximide was run.
A column separate from the one (referred to above) that served as the negative control was used for cell control wells to which only media was added.
The plates were then incubated for 24 hours at 37° C. and 5% CO2. […] The two columns used earlier to prepare the 100-fold dilution plate by pipetting 18 μl of 100% DMSO contained the samples tested at 200 μM. After the 24 hour incubation period, the 4 μl of Cell Titer blue was added to each well using a Multichannel Matrix pipettor. The plates were returned to the incubator and incubated for an additional 5 hours. Fluorescence (530 nm excitation wavelength/590 nm emission wavelength) was measured on a Wallac Victor microplate reader.
Cell viability was assessed fluorometrically after a 5 hour incubation with resazurin (Cell Titer Blue™), which is reduced by living cells to the fluorescent resorufin.
The average fluorescence for the negative control was determined to obtain the average blank fluorescence. The average blank fluorescence was subtracted from the fluorescence values obtained for all the test agents. The resulting values are the corrected fluorescence. […]

SMILES	MIC [1] [µg/mL]	MIC [2] [µg/mL]	IC50 ([3]; Cricetulus griseus, 24 h) [µM]	MIC E.coli [1]	MIC S. aureus [2]	IC50 [3] [µM]
C=C[C@H](N)CCCc1cc(-c2cc3cn(-c4ccc([C@@H]5CCC[C@@H](CCNC(=N)CN)N5CCCF)c(F)c4)c(=O)nc3[nH]2)cc(C(F)(F)F)c1 [Compound 63]	≤ 16	≤ 16	> 100	–	–	–
COC[C@H](N)CCCc1cc(OC(F)(F)F)c(F)c(-c2cc3cn(-c4ccc([C@@H]5CCC[C@@H](CCNC(=N)CN)N5)cc4)c(=O)nc3[nH]2)c1 [Compound 11]	≤ 16	≤ 16	> 100	–	–	–
CSc1cc(-n2cc3cc(-c4cc(CCC[C@@H](N)C5CC5)cc(C(F)(F)F)c4)[nH]c3nc2=O)cc(F)c1[C@@H]1CCC[C@@H](CCNC(=N)CN)N1CCCF [Compound 54]	> 16	≤ 16	> 100	–	–	–
CSc1cc(-n2cc3cc(-c4cc(CCC[C@H](C)N)cc(Cl)c4F)[nH]c3nc2=O)ccc1[C@@H]1CCC[C@@H](CCNC(=N)CN)N1 [Compound 10]	≤ 16	≤ 16	> 100	–	–	–
N=C(CN)NCC[C@@H]1CCC[C@@H](c2ccc(-n3cc4cc(-c5cc(CCC[C@@H](N)C6CC6)cc(C(F)(F)F)c5)[nH]c4nc3=O)cc2)N1CCCF [Compound 42]	≤ 16	≤ 16	> 100	–	–	–
C=C[C@H](N)CCCc1cc(Cl)c(F)c(-c2cc3cn(-c4ccc([C@@H]5CCC[C@@H](CCNC(=N)CN)N5CCCF)c(F)c4)c(=O)nc3[nH]2)c1 [Compound 66]	≤ 16	≤ 16	37.3	–	–	–
CSc1cc(-n2cc3cc(-c4cc(CCC[C@H](C)N)cc(C(F)(F)F)c4)[nH]c3nc2=O)cc(F)c1[C@@H]1CCC[C@@H](CCNC(=N)CN)N1CCCF [Compound 51]	> 16	≤ 16	> 100	–	–	–
C[C@H](N)CCCc1cc(-c2cc3cn(-c4ccc([C@@H]5CCC[C@@H](CCNC(=N)CN)N5CCCF)cc4)c(=O)nc3[nH]2)cc(C(F)(F)F)c1 [Compound 23]	≤ 16	≤ 16	> 100	–	–	–
C[C@H](N)CCCc1cc(-c2cc3cn(-c4ccc([C@@H]5CCC[C@@H](CCNC(=N)CN)N5)cc4)c(=O)nc3[nH]2)ccc1C(F)(F)F [Compound 21]	≤ 16	≤ 16	> 100	–	–	–
C[C@H](N)CCCc1cc(Cl)c(F)c(-c2cc3cn(-c4ccc([C@@H]5CCC[C@@H](CNC(=N)CN)N5)cc4)c(=O)nc3[nH]2)c1 [Compound 68]	≤ 16	≤ 16	85.3	–	–	–
C[C@H](N)CCCc1cc(Cl)c(F)c(-c2cc3cn(-c4ccc([C@@H]5CCC[C@@H](CCNC(=N)[C@@H](N)CO)N5)cc4)c(=O)nc3[nH]2)c1 [Compound 57]	≤ 16	≤ 16	> 100	–	–	–
N=C(CN)NCC[C@@H]1CCC[C@@H](c2ccc(-n3cc4cc(-c5cc(CCC[C@@H](N)C6CC6)cc(Cl)c5F)[nH]c4nc3=O)cc2)N1 [Compound 12]	≤ 16	≤ 16	> 100	–	–	–
C[C@H](N)CCCc1cc(Cl)c(F)c(-c2cc3cn(-c4ccc([C@@H]5CCC[C@@H](CCNC(=N)CN)N5)c(F)c4)c(=O)nc3[nH]2)c1 [Compound 13]	≤ 16	≤ 16	> 100	–	–	–
N=C(CN)NCC[C@@H]1CCC[C@@H](c2ccc(-n3cc4cc(-c5cc(CCC[C@@H](N)CO)cc(Cl)c5F)[nH]c4nc3=O)cc2)N1 [Compound 16]	≤ 16	≤ 16	50.9	–	–	–
C[C@H](N)CCCc1cc(Cl)c(F)c(-c2cc3cn(-c4ccc([C@@H]5CCC[C@@H](CCNC(=N)CN)N5)cc4)c(=O)nc3[nH]2)c1 [Compound 14]	–	–	–	+ (the compound has an MIC value of 16 micrograms/mL or less)	+ (the compound has an MIC value of 16 micrograms/mL or less)	> 100
C[C@H](N)CCCc1cc(Cl)c(F)c(-c2cc3cn(-c4cc(F)c([C@@H]5CCC[C@@H](CCNC(=N)CN)N5)c(F)c4)c(=O)nc3[nH]2)c1 [Compound 15]	≤ 16	≤ 16	> 100	–	–	–
C[C@H](N)CCCc1cc(Cl)c(F)c(-c2cc3cn(-c4ccc([C@H](C)NCCCNC(=N)CN)cc4)c(=O)nc3[nH]2)c1 [Compound 9]	≤ 16	≤ 16	> 100	–	–	–
CSc1cc(-n2cc3cc(-c4cc(CCC[C@@H](N)C5CC5)cc(C(F)(F)F)c4)[nH]c3nc2=O)ccc1[C@@H]1CCC[C@@H](CCNC(=N)CN)N1CCCF [Compound 53]	≤ 16	≤ 16	> 100	–	–	–
C[C@H](N)CCCc1cc(Cl)c(F)c(-c2cc3cn(-c4ccc([C@@H]5CCC[C@@H](CCNC(=N)[C@@H](C)N)N5)cc4)c(=O)nc3[nH]2)c1 [Compound 59]	≤ 16	≤ 16	> 100	–	–	–
CSc1cc(-n2cc3cc(-c4cc(CCC[C@H](C)N)cc(Cl)c4F)[nH]c3nc2=O)ccc1[C@@H]1CCC[C@@H](CCNC(=N)CN)N1CCCF [Compound 49]	≤ 16	≤ 16	21.1	–	–	–
N=C(CN)NCC[C@@H]1CCC[C@@H](c2ccc(-n3cc4cc(-c5cc(CCC[C@@H](N)C6CC6)cc(Cl)c5F)[nH]c4nc3=O)cc2F)N1CCCF [Compound 47]	≤ 16	≤ 16	50.5	–	–	–
C=C[C@@H](CCNC(=N)CN1CCOCC1)NCc1ccc(-n2cc3cc(-c4cc(CCC[C@H](C)N)cc(Cl)c4F)[nH]c3nc2=O)cc1 [Compound 6]	≤ 16	≤ 16	–	–	–	–
C=C[C@@H](CCNC(=N)CN1CCOCC1)NCc1ccc(-n2cc3cc(-c4cc(CCC[C@H](C)N)cc(Cl)c4F)[nH]c3nc2=O)cc1 [Compound 1]	–	–	> 100	–	–	–
